Experimental data from patent US9783495B2, “Treatment for lipodystrophy” (Cadila Healthcare Limited, priority 2011, dated 2017).

Assays:
[1] = system: HIV-infected men with central obesity and low testosterone levels; conditions: transdermal gel 10 g daily, 24 weeks, cited from earlier work
Dyslipidemia subjects = experiment: Phase II studies in Dyslipidemia subjects; format: in vivo, human; conditions: 4 mg once daily
Method: This was exploratory proof of concept study designed to assess the proof of safety and efficacy in intended population. […] Based upon these observations 4 mg once daily in fasted condition was selected for present study

[2] = system: subjects with hypertriglyceridemia in HIV associated lipodystrophy; experiment: Prospective, multi-centric, open-label, single arm study of 4 mg of compound of formula (I) in hypertriglyceridemia in HIV associated lipodystrophy; format: in vivo, human; conditions: 4 mg oral once daily; for Homa of Insulin Resistance for C-Peptide, Mean ± SD: Visit 1 mean 1.59 ± 0.82; for Insulin (fasting), Mean ± SD: Visit 1 mean 9.21 ± 6.26; for HDL Cholesterol, Mean ± SD: Visit 1 mean 35.27 ± 7.85; for HOMA of Beta Cell Function for Insulin, Mean ± SD: Visit 1 mean 107.82 ± 52.85; for TG, Mean ± SD: Visit 1 mean 301.68 ± 86.99; for Homa of Insulin Resistance for C-Peptide, Median: Visit 1 median 1.40; for Insulin (fasting), Median: Visit 1 median 7.40; for HDL Cholesterol, Median: Visit 1 median 34.52; for HOMA of Beta Cell Function for Insulin, Median: Visit 1 median 97.25; for TG, Median: Visit 1 median 275.45
Description: After obtaining informed written consent, subjects with hypertriglyceridemia in HIV associated lipodystrophy, on treatment with HAART for at least 18 months and satisfying the inclusion and exclusion criteria were enrolled in the study.
The primary efficacy endpoint was to assess the percent change in TG levels from baseline to Week 6 and Week 12. The secondary efficacy endpoint was the assessment of LDL, VLDL, HDL, Non HDL cholesterol, Total cholesterol, Apo Al, Apo B, and C-peptide and fasting insulin for HOMA beta and HOMA IR.
For the efficacy endpoints, treatment effect was evaluated using an analysis of variance (ANOVA) model with factors for baseline and treatment. Treatment effects were estimated using the least-square means (LSM) and 95% confidence intervals (CIs) from the ANOVA model. Statistical significance was defined as a two-sided p-value <0.05. All other secondary endpoints were analyzed using appropriate statistical methods.
Subjects who satisfied all of the following criteria were eligible for enrolment in the study: • 1. Males and females aged 18-65 years. • 2. Confirmed diagnosis of HIV1 and on HAART for at least 18 months. • 3. On stable ART regimen for at least 8 weeks prior to inclusion in the study and ART regimen not expected to change in next 3 months. • 4. Subjects clinically diagnosed as HIV lipodystrophy (at least 1 moderate or severe lipodystrophy feature identified by doctor and patient, except isolated abdominal obesity) • 5. Triglycerides>200 to 500 mg %. • 6. CD4 count of>50/mm^3 • 7. Subject who had given informed consent for participation in this trial. Treatments Treatments Administered […]
The primary efficacy endpoint was to determine the percent change in TG levels from baseline to Week 6 and Week 12.
The secondary efficacy endpoint was to determine the percent change in LDL, VLDL, HDL, total cholesterol, non-HDL Cholesterol (measured value), Apo Al, and Apo B, C-peptide and fasting insulin for HOMA beta and HOMA IR levels from baseline to Week 6 and Week 12.
The primary efficacy variable was the reduction in TG at Week 6 and Week 12 of the treatment period compared with baseline. The change from baseline was determined as the difference between the means for the treatment period (Weeks 6/Weeks 12) and the baseline.
Intent-to-treat (ITT) and/or Per Protocol (PP) analysis were carried out for the study. The PP analysis was considered definitive while the ITT analysis was considered supportive during the trial analysis.
One subject identified as EHT004 in the study, a person, was reported with abnormally low levels of HDL (3.95 mg/L) and LDL (6.25 mg/L) at Visit 1. Though this subject completed the study and was assessable for efficacy, it was decided to exclude this subject from the efficacy analyses. Therefore a total of 49 subjects were analyzed for efficacy.

[3] = Phase I study, effect of food on absorption; format: in vivo, human
[4] = Visit 3 (Week 6), p <0.0001, listed as COMPOUND OF FORMULA(I)
[5] = Visit 4 (Week 12), p <0.0001, listed as COMPOUND OF FORMULA(I)

In the case of `C[C@]12CC[C@H]3[C@@H](CCC4=CC(=O)CC[C@@]43C)[C@@H]1CC[C@@H]2O` [testosterone], the “change in VAT” value ([1]; placebo +2.3%, no statistically significant difference) is listed as “+0.9%”, the “change in limb fat” value ([1]; placebo +3.1%, statistically significant) is listed as −10.1% and the “change in abdominal fat” value ([1]; placebo +4.3%, statistically significant) is listed as −1.5%. The “change in trunk fat” value ([1]; placebo +4.6%, statistically significant) was −9.9% and the “change in abdominal subcutaneous adipose tissue (SAT)” value ([1]; placebo +8.1%, statistically significant) was −7.2%.
With “(S)-α-Ethoxy-4-[2-[-methyl-5-[4-(methylthio)phenyl]-1H-pyrrol-1-yl]ethoxy] benzenepropanoic acid magnesium salt [compound of formula (I)]” the efficacy (Dyslipidemia subjects) was “effective”, the tolerability (Dyslipidemia subjects) was “well tolerated” and the “HDL Cholesterol, Maximum” value ([2]; Visit 3 (Week 6)) was 73.50 mg/dL. For the same compound, the “HDL Cholesterol, Minimum” value ([2]; Visit 3 (Week 6)) was 20.13 mg/dL, the “HOMA of Beta Cell Function for Insulin, Maximum” value ([2]; Visit 3 (Week 6)) was 348.00 and the “HOMA of Beta Cell Function for Insulin, Minimum” value ([2]; Visit 3 (Week 6)) was 34.90. The “Homa of Insulin Resistance for C-Peptide, Maximum” value ([2]; Visit 3 (Week 6)) was 3.60, the “Homa of Insulin Resistance for C-Peptide, Minimum” value ([2]; Visit 3 (Week 6)) was 0.90 and the “Insulin (fasting), Maximum” value ([2]; Visit 3 (Week 6)) was 26.82 μu/mL. The “Insulin (fasting), Minimum” value ([2]; Visit 3 (Week 6)) was 2.14 μu/mL, the “TG, Maximum” value ([2]; Visit 3 (Week 6)) was 631.08 mg/dL and the “TG, Minimum” value ([2]; Visit 3 (Week 6)) was 42.61 mg/dL. For the same compound, the “Homa of Insulin Resistance for C-Peptide, Mean ± SD” value ([2]; Visit 3 (Week 6)) was 1.86 ± 0.77, the “Insulin (fasting), Mean ± SD” value ([2]; Visit 3 (Week 6)) was 10.42 ± 5.74 μu/mL and the “HDL Cholesterol, Mean ± SD” value ([2]; Visit 3 (Week 6)) was 44.44 ± 14.04 mg/dL. For the same compound, the “HOMA of Beta Cell Function for Insulin, Mean ± SD” value ([2]; Visit 3 (Week 6)) was 136.41 ± 76.00, the “TG, Mean ± SD” value ([2]; Visit 3 (Week 6)) was 172.81 ± 106.30 mg/dL and the “Homa of Insulin Resistance for C-Peptide, Median” value ([2]; Visit 3 (Week 6)) was 1.70. The “Insulin (fasting), Median” value ([2]; Visit 3 (Week 6)) was 8.35 μu/mL, the “HDL Cholesterol, Median” value ([2]; Visit 3 (Week 6)) was 43.36 mg/dL and the “HOMA of Beta Cell Function for Insulin, Median” value ([2]; Visit 3 (Week 6)) was 116.50. The “TG, Median” value ([2]; Visit 3 (Week 6)) was 147.68 mg/dL, the “HOMA of Beta Cell Function for Insulin, % Change from Visit 1 (LS Mean ± SE)” value ([2]; Visit 3 (Week 6), p 0.0010) was 52.50±14.94% and the “HOMA of Beta Cell Function for Insulin, % Change from Visit 1 (LS Mean ± SE)” value ([2]; Visit 3 (Week 6), p 0.0010, listed as COMPOUND OF FORMULA(I)) was 52.50 ± 14.94%. For the same compound, the “HOMA of Beta Cell Function for Insulin, Change from Visit 1 (LS Mean ± SE)” value ([2]; Visit 3 (Week 6), p 0.0015) was 29.55 ± 8.76, the “HDL Cholesterol, % Change from Visit 1 (LS Mean ± SE)” value ([2]; Visit 3 (Week 6), p <0.0001) was 29.92±5.73% and the “HDL Cholesterol, Change from Visit 1 (LS Mean ± SE)” value ([2]; Visit 3 (Week 6), p <0.0001) was 9.17 ± 1.99 mg/dL. For the same compound, the “Homa of Insulin Resistance for C-Peptide, % Change from Visit 1 (LS Mean ± SE)” value ([2]; Visit 3 (Week 6), p <0.0001) was 27.87±4.22%, the “Homa of Insulin Resistance for C-Peptide, Change from Visit 1 (LS Mean ± SE)” value ([2]; Visit 3 (Week 6), p <0.0001) was 0.27 ± 0.05 and the “Insulin (fasting), % Change from Visit 1 (LS Mean ± SE)” value ([2]; Visit 3 (Week 6), p <0.0001) was 23.71±3.55%. For the same compound, the “Insulin (fasting), Change from Visit 1 (LS Mean ± SE)” value ([2]; Visit 3 (Week 6), p <0.0001) was 1.21 ± 0.22 μu/mL, the “TG, % Change from Visit 1 (LS Mean ± SE)” value ([2]; Visit 3 (Week 6), p <0.0001) was -40.98±4.89% and the “TG, Change from Visit 1 (LS Mean ± SE)” value ([2]; Visit 3 (Week 6), p <0.0001) was -128.87 ± 14.96 mg/dL. For the same compound, the “HDL Cholesterol, % Change from Visit 1 (LS Mean ± SE)” value [2, 4] was 29.92 ± 5.73%, the “Homa of Insulin Resistance for C-Peptide, % Change from Visit 1 (LS Mean ± SE)” value [2, 4] was 27.87 ± 4.22% and the “Insulin (fasting), % Change from Visit 1 (LS Mean ± SE)” value [2, 4] was 23.71 ± 3.55%. For the same compound, the “TG, % Change from Visit 1 (LS Mean ± SE)” value [2, 4] was −40.98 ± 4.89%, the “HDL Cholesterol, Maximum” value ([2]; Visit 4 (Week 12)) was 82.89 mg/dL and the “HDL Cholesterol, Minimum” value ([2]; Visit 4 (Week 12)) was 17.61 mg/dL. For the same compound, the “HOMA of Beta Cell Function for Insulin, Maximum” value ([2]; Visit 4 (Week 12)) was 273.30, the “HOMA of Beta Cell Function for Insulin, Minimum” value ([2]; Visit 4 (Week 12)) was 9.80 and the “Homa of Insulin Resistance for C-Peptide, Maximum” value ([2]; Visit 4 (Week 12)) was 3.60. The “Homa of Insulin Resistance for C-Peptide, Minimum” value ([2]; Visit 4 (Week 12)) was 1.10, the “Insulin (fasting), Maximum” value ([2]; Visit 4 (Week 12)) was 24.29 μu/mL and the “Insulin (fasting), Minimum” value ([2]; Visit 4 (Week 12)) was 5.93 μu/mL. The “TG, Maximum” value ([2]; Visit 4 (Week 12)) was 387.69 mg/dL, the “TG, Minimum” value ([2]; Visit 4 (Week 12)) was 46.88 mg/dL and the “Homa of Insulin Resistance for C-Peptide, Mean ± SD” value ([2]; Visit 4 (Week 12)) was 2.15 ± 0.62. For the same compound, the “Insulin (fasting), Mean ± SD” value ([2]; Visit 4 (Week 12)) was 11.40 ± 4.45 μu/mL, the “HDL Cholesterol, Mean ± SD” value ([2]; Visit 4 (Week 12)) was 46.14 ± 14.84 mg/dL and the “HOMA of Beta Cell Function for Insulin, Mean ± SD” value ([2]; Visit 4 (Week 12)) was 137.56 ± 46.11. For the same compound, the “TG, Mean ± SD” value ([2]; Visit 4 (Week 12)) was 166.97 ± 89.17 mg/dL, the “Homa of Insulin Resistance for C-Peptide, Median” value ([2]; Visit 4 (Week 12)) was 2.10 and the “Insulin (fasting), Median” value ([2]; Visit 4 (Week 12)) was 10.18 μu/mL. For the same compound, the “HDL Cholesterol, Median” value ([2]; Visit 4 (Week 12)) was 47.70 mg/dL, the “HOMA of Beta Cell Function for Insulin, Median” value ([2]; Visit 4 (Week 12)) was 125.60 and the “TG, Median” value ([2]; Visit 4 (Week 12)) was 145.91 mg/dL. The “HDL Cholesterol, % Change from Visit 1 (LS Mean ± SE)” value ([2]; Visit 4 (Week 12), p <0.0001) was 34.56±6.13%, the “HDL Cholesterol, Change from Visit 1 (LS Mean ± SE)” value ([2]; Visit 4 (Week 12), p <0.0001) was 10.87 ± 2.08 mg/dL and the “HOMA of Beta Cell Function for Insulin, % Change from Visit 1 (LS Mean ± SE)” value ([2]; Visit 4 (Week 12), p <0.0001) was 45.64±6.22%. The “HOMA of Beta Cell Function for Insulin, Change from Visit 1 (LS Mean ± SE)” value ([2]; Visit 4 (Week 12), p <0.0001) was 30.78 ± 4.25, the “Homa of Insulin Resistance for C-Peptide, % Change from Visit 1 (LS Mean ± SE)” value ([2]; Visit 4 (Week 12), p <0.0001) was 58.29±5.74% and the “Homa of Insulin Resistance for C-Peptide, Change from Visit 1 (LS Mean ± SE)” value ([2]; Visit 4 (Week 12), p <0.0001) was 0.56 ± 0.05. For the same compound, the “Insulin (fasting), % Change from Visit 1 (LS Mean ± SE)” value ([2]; Visit 4 (Week 12), p <0.0001) was 47.10±4.21%, the “Insulin (fasting), Change from Visit 1 (LS Mean ± SE)” value ([2]; Visit 4 (Week 12), p <0.0001) was 2.20 ± 0.21 μu/mL and the “TG, % Change from Visit 1 (LS Mean ± SE)” value ([2]; Visit 4 (Week 12), p <0.0001) was -45.11±3.60%. For the same compound, the “TG, Change from Visit 1 (LS Mean ± SE)” value ([2]; Visit 4 (Week 12), p <0.0001) was -134.71 ± 10.78 mg/dL, the “HDL Cholesterol, % Change from Visit 1 (LS Mean ± SE)” value [2, 5] was 34.56 ± 6.13% and the “HOMA of Beta Cell Function for Insulin, % Change from Visit 1 (LS Mean ± SE)” value [2, 5] was 45.64 ± 6.22%. The “Homa of Insulin Resistance for C-Peptide, % Change from Visit 1 (LS Mean ± SE)” value [2, 5] was 58.29 ± 5.74%, the “Insulin (fasting), % Change from Visit 1 (LS Mean ± SE)” value [2, 5] was 47.10 ± 4.21% and the “TG, % Change from Visit 1 (LS Mean ± SE)” value [2, 5] was −45.11 ± 3.60%. For the same compound, the “increase in the HOMA of Beta-cell function derived from C-peptide from baseline” value ([2]; Week 6, p 0.0104) was 68.25±25.58, the “HOMA of insulin resistance derived from insulin, percent change from baseline” value ([2]; Week 6, p <0.0001) was 29.10±3.94% and the “change in the non-HDL cholesterol levels from baseline” value ([2]; Week 6 and Week 12, p-values 0.3963 and 0.4646) was “no statistically significant change”. The “HOMA of insulin resistance derived from insulin, percent change from baseline” value ([2]; Week 12, p <0.0001) was 42.65±3.79%, the “increase in the HOMA of Beta-cell function derived from C-peptide from baseline” value ([2]; Week 12, p <0.0001) was 71.67±16.20 and the “effect of food on absorption” value [3] was “food significantly affects absorption”.
